Data: publication PMC6400584, “Activation mechanism of ATP-sensitive K^+ channels explored with real-time nucleotide binding” (eLife, 2019)
Like-named read-outs stand apart in the source and are kept apart here.

Legend:
SUR1-Y1353*/Kir6.2 = experiment: Nucleotide wash-out (dissociation) time course; type: binding, Homo sapiens; details: for τ of MgTNP-ADP dissociation in the presence of drug / τ of MgTNP-ATP dissociation in the presence of drug: 500 µM tolbutamide or 340 µM diazoxide; for t0.5 (time to 50% dissociation): no drug, mean ± SD of individual fits; for reduction of off-rate in the presence of Mg2+ (fold / factor): with vs without Mg2+
SUR1/Kir6.2-G334D = molecular target: T1, SUR1/Kir6.2-G334D (Homo sapiens, UniProt Q09428); experiment: Current activation in inside-out patches; type: biochemical
T1 construct: expressed in transfected cells; host or cells: HEK-293T
Procedure: (§1) Currents were recorded from inside-out membrane patches excised from transfected HEK-293T cells. Pipettes were pulled to a resistance of 1–5 MΩ and filled with an extracellular solution containing (in mM) 140 KCl, 1.2 MgCl2, 2.6 CaCl2, and 10 HEPES, pH 7.4 or 140 KCl, 1 EGTA, 10 HEPES, pH 7.3. The intracellular (bath) solutions contained either (in mM) 107 KCl, 2 MgCl2, 1 CaCl2, 10 EGTA, and 10 HEPES, pH 7.2 for experiments showing nucleotide-dependent activation or 140 KCl, 1 EDTA, 1 EGTA, 10 HEPES pH 7.3 for experiments showing nucleotide-dependent inhibition. Nucleotides were added as indicated. Patches were perfused with an 8-channel µFlow perfusion system. Data were acquired at a holding potential of −60 mV using an Axopatch 200B amplifier and Digidata 1322A digitizer with pClamp 9.0 software (Molecular Devices). Currents were digitized at 10 kHz and low-pass filtered at 1 kHz. KATP channels run down in excised patches (reviewed by Proks et al.) ([Proks et al., 2016]). For inhibitory concentration-response relationships, rundown was corrected by alternating test nucleotide solutions with nucleotide-free (control) solutions and expressing the test currents as a fraction of the average of the control currents before and after the test solution. […]

SUR1-T1397*/Kir6.2 [1] = molecular target: T2, SUR1-T1397*/Kir6.2 (Homo sapiens, UniProt Q09428, T1397X); experiment: FRET binding of TNP-nucleotides to ANAP-labeled KATP in unroofed membrane fragments; details: absence of Mg2+
T2 construct: confirmed that >95% of SUR1-T1397* was full length; expressed in transfected cells; host or cells: HEK-293T
Procedure: (§2) Unroofed membranes were prepared using a modification of a protocol from the Heuser laboratory ([Heuser, 2000]; [Usukura et al., 2012]; [Zagotta et al., 2016]). Briefly, a coverslip containing adherent cells was removed from the cell culture medium and a small piece (0.5–1 cm) was broken off using jewelers forceps (#5) and washed in phosphate buffered saline (PBS, Thermo Fisher Scientific) diluted 1:3 in deionized water. Cells were exposed 3 × 10 s to a solution of 0.01% poly-L-lysine (Sigma) with intervening washes in diluted PBS to adhere them more firmly to the coverslips. The coverslip fragment was then placed in a 30 mm culture dish filled with 2–3 mL of 1/3X PBS and sonicated very briefly (~100 ms) using a probe sonicator (Vibra-cell; Newtown, CT), leaving behind adherent plasma membrane and sometimes additional cellular material. The unroofed fragments in our experiments were sometimes visible under bright-field illumination, a potential result of our modified ‘unroofing’ procedure. Morphologically, such cell fragments resemble the ‘partially unroofed’ cells identified by Usukura et al. ([Usukura et al., 2012]) Cells cultured on poly-D-lysine coated FluoroDishes were unroofed in diluted PBS with no additional poly-L-lysine treatment. This procedure yielded a higher percentage of completely unroofed plasma membranes (i.e. nearly invisible with brightfield illumination).
(§3) Unroofed membrane fragments were imaged directly on FluoroDishes (FD35-PDL-100, World Precision Instruments) or on broken coverslips placed in a FluoroDish (FD3510, World Precision instruments) using a Nikon TE2000-U microscope equipped with a 40x (S Fluor, 1.3 NA; Nikon, Kingston Upon Thames, UK) or 100x (Apo TIRF, 1.49 NA, Nikon) oil-immersion objective and low-fluorescence immersion oil (MOIL-30, Olympus; Southend-on-Sea, UK) or a 60x water immersion objective (Plan Apo VC, 1.20 NA, Nikon). ANAP was excited using a ThorLabs LED source (LED4D067) at 385 nm connected to the microscope using a liquid light guide in series with a 390/18 nm band-pass filter (MF390-18, ThorLabs; Newton, NJ) and MD416 dichroic (ThorLabs). For imaging, emitted light was filtered through a 479/40 nm band-pass filter (MF479-40, ThorLabs). GFP-tagged constructs were imaged using a similar setup with excitation at 490 nm, a 480/40 band-pass excitation filter (Chroma; Bellows Falls, VT), a DM505 dichroic mirror (Chroma), and 510 nm long-pass emission filter (Chroma). All images were acquired using a PIXIS 400B CCD camera (Princeton Instruments; Trenton, NJ). For spectroscopy, ANAP was excited as above, but emitted light was passed through a 400 nm long-pass filter (FEL0400, ThorLabs) and directed through the slit of an Isoplane 160 spectrometer (300 g/mm grating; Princeton Instruments) in series with the camera. The acquired images retained spatial information in the y-dimension, with the x-dimension replaced by wavelength (Figure 1—figure supplement 1a). Exposure times were typically 100 ms for brightfield images, 1–10 s for steady-state spectra and 1–5 s for time-course experiments.
(§4) To prevent accumulation of fluorescent nucleotides in the bath, FluoroDishes were perfused with either (in mM) 140 KCl, 20 NaCl, 10 MgCl2, 10 HEPES pH 7.2 with NaOH or 140 KCl, 20 NaCl, 1 EDTA, 10 HEPES pH 7.2 with NaOH using a peristaltic pump (Ismatec; Wertheim, Germany). Unroofed membranes were directly perfused with nucleotides using an 8-channel µFlow perfusion system (ALA Scientific Instruments; Farmingdale, NY). Solution change with the µFlow was rapid (τ = 0.73 s±0.02 s, n=5) as measured from single exponential fits to wash-out of 50 µM tetramethylrhodamine-5-maleimide (TMRM) after switching to a solution with no TMRM. TMRM was excited with a 565 nm LED with a D540/25X band-pass filter (Chroma) and DM565 dichroic mirror (Chroma). Emitted light was collected through a D605/55M band-pass filter (Chroma). […]

SUR1-Y1353*,K2A/Kir6.2 [2] = molecular target: T3, SUR1-Y1353*,K2A/Kir6.2 (Homo sapiens, UniProt Q09428, K1384A/Y1353X); experiment: as above; details: absence of Mg2+
T3 construct: the signals we measured (fluorescence) were derived solely from full-length (i.e. ANAP-labeled) channels; expressed in transfected cells; host or cells: HEK-293T
Procedure: as §2, §3, §4

[3] = molecular target: SUR1-Y1353*/Kir6.2 (NBS2 of SUR1) (Homo sapiens, UniProt Q09428, Y1353X); experiment: as above
Procedure: as §2, §3, §4

SUR1-T1397*/Kir6.2 [4] = experiment: Current inhibition in inside-out patches in the absence of Mg2+; type: biochemical, Homo sapiens
Procedure: as §1

SUR1-Y1353*,K2A/Kir6.2 [5] = molecular target: T3, SUR1-Y1353*,K2A/Kir6.2; experiment: Nucleotide wash-out (dissociation) time course; type: binding; details: absence of Mg2+
Source text: as §4, with “[…] Solution exchange” for “Emitted light”, “also monitored during experiments with TNP-nucleotides by examining the emission spectrum of” for “collected through”, “background region in each image.” for “D605/55M band-pass filter (Chroma).”
To measure the time course of nucleotide unbinding, the fluorescence at the TNP-nucleotide peak (usually around 560 nm) was plotted as a function of time after exchanging to a zero-nucleotide solution, as following the time course of the rise in ANAP fluorescence was complicated by photobleaching. After complete wash out of nucleotides, the fluorescence at 560 nm was non-zero, as the shoulder of the ANAP emission spectrum extends into the range of wavelengths at which TNP-nucleotides emit. […]

SUR1/Kir6.2 = molecular target: T4, SUR1/Kir6.2 (Homo sapiens, UniProt Q09428+Q14654); design: method as in Proks et al., 2010; details: 100 μM in Mg2+-free solutions; wild-type; ref Proks et al., 2010; cited from earlier work
T4 construct: expressed in transfected cells; host or cells: HEK-293T

[6] = mean ± SEM of fits to individual experiments
[7] = absence of Mg2+ (1 mM EDTA), mean ± SEM of fits to individual experiments
[8] = absence of Mg2+, fit to combined data

Molecule | τ of MgTNP-ADP dissociation in the presence of drug (SUR1-Y1353*/Kir6.2; fit to combined data) [s] | τ of MgTNP-ATP dissociation in the presence of drug (SUR1-Y1353*/Kir6.2; fit to combined data) [s] | EC50 (SUR1-T1397*/Kir6.2 [1]; fit to combined data) [µM] | Emax (SUR1-T1397*/Kir6.2 [1]; fit to combined data) | h (SUR1-T1397*/Kir6.2 [1]; fit to combined data) | EC50 (SUR1-T1397*/Kir6.2 [1]; [6]) [µM] | Emax (SUR1-T1397*/Kir6.2 [1]; [6]) | h (SUR1-T1397*/Kir6.2 [1]; [6]) | Emax (SUR1-Y1353*,K2A/Kir6.2 [2]; fit to combined data) | h (SUR1-Y1353*,K2A/Kir6.2 [2]; fit to combined data) | Emax (SUR1-Y1353*,K2A/Kir6.2 [2]; [6]) | h (SUR1-Y1353*,K2A/Kir6.2 [2]; [6]) | Emax [3, 7] | h [3, 7] | Emax [3, 8] | h [3, 8] | t0.5 (time to 50% dissociation) (SUR1-Y1353*/Kir6.2; absence of Mg2+) [s] | reduction of off-rate in the presence of Mg2+ (fold / factor) (SUR1-Y1353*/Kir6.2) | other results
CCCCNC(=O)NS(=O)(=O)c1ccc(C)cc1 [tolbutamide] | 6.4 | 6.3 | – | – | – | – | – | – | – | – | – | – | – | – | – | – | – | – | effect on currents (SUR1/Kir6.2-G334D): inhibited
Nc1ncnc2c1ncn2[C@@H]1O[C@H](COP(=O)(O)OP(=O)(O)OP(=O)(O)O)[C@H]2OC3(O[C@H]21)C([N+](=O)[O-])=CC(=[N+]([O-])[O-])C=C3[N+](=O)[O-] (stereo partly drawn) [TNP-ATP, trinitrophenyl-ATP] | – | – | 4.8 | 0.94 ± 0.02 | 0.8 ± 0.1 | 4.7 ± 0.8 | 0.94 ± 0.01 | 0.83 ± 0.09 | 0.87 ± 0.03 | 0.9 ± 0.2 | 0.90 ± 0.03 | 0.98 ± 0.13 | 0.83 ± 0.03 | 0.88 ± 0.06 | 0.84 ± 0.04 | 0.8 ± 0.1 | 4.8 ± 1.5 | 2.2 | EC50 ([3]; EC50, absence of Mg2+ (1 mM EDTA), mean ± SEM of fits to individual experiments): 12.8 ± 5.6 µM; EC50 ([3]; EC50, absence of Mg2+, fit to combined data): 8.5 µM; A1 of dissociation (bi-exponential amplitude) (SUR1-Y1353*/Kir6.2; [8]): 0.65 ± 0.06; A2 of dissociation (bi-exponential amplitude) (SUR1-Y1353*/Kir6.2; [8]): 0.35 ± 0.06; τ1 of dissociation (bi-exponential) (SUR1-Y1353*/Kir6.2; [8]): 4.5 s; τ2 of dissociation (bi-exponential) (SUR1-Y1353*/Kir6.2; [8]): 28.2 s
Nc1ncnc2c1ncn2[C@@H]1O[C@H](COP(=O)(O)OP(=O)(O)OP(=O)(O)O)[C@@H](O)[C@H]1O [ATP] | – | – | – | – | – | – | – | – | – | – | – | – | – | – | – | – | – | – | IC50 (SUR1-T1397*/Kir6.2 [4]; Equation 4 fit to combined data): 49.2 µM; IC50 (SUR1-T1397*/Kir6.2 [4]; mean ± SEM of fits of Equation 4 to individual experiments): 53.9 ± 9.4 µM
trinitrophenyl-ADP [TNP-ADP] | – | – | 5.6 | 0.98 ± 0.05 | 0.7 ± 0.1 | 6.3 ± 2.3 | 0.98 ± 0.02 | 0.84 ± 0.13 | 0.91 ± 0.02 | 0.9 ± 0.1 | 0.92 ± 0.02 | 0.88 ± 0.05 | 0.95 ± 0.01 | 0.79 ± 0.04 | 0.95 ± 0.02 | 0.8 ± 0.1 | 2.9 ± 0.5 | ~ 5 | EC50 (SUR1-Y1353*,K2A/Kir6.2 [2]; fit to combined data): 4.4 µM; EC50 (SUR1-Y1353*,K2A/Kir6.2 [2]; [6]): 5 ± 1 µM; EC50 ([3]; absence of Mg2+ (1 mM EDTA), mean ± SEM of fits to individual experiments, read-out: EC50): 6.8 ± 1.3 µM; EC50 ([3]; absence of Mg2+, fit to combined data, read-out: EC50): 6.1 µM; effect of increasing concentration to 10 mM on amount of quenching ([3]; absence of Mg2+, n = 3, data not shown): did not significantly change; τ of dissociation (single exponential) (SUR1-Y1353*/Kir6.2; [8]): 4.2 s; τ of dissociation (single exponential) (SUR1-Y1353*,K2A/Kir6.2 [5]; fit to combined data): 5.4 s; t0.5 (time to 50% dissociation) (SUR1-Y1353*,K2A/Kir6.2 [5]; mean ± SD): 3.8 ± 1.0 s
Nc1ncnc2c1ncn2[C@@H]1O[C@H](COP(=O)(O)OP(=O)(O)O)[C@@H](O)[C@H]1O [ADP] | – | – | – | – | – | – | – | – | – | – | – | – | – | – | – | – | – | – | reduction in current (SUR1/Kir6.2): ~ 60%
CC1=NS(=O)(=O)c2cc(Cl)ccc2N1 [diazoxide] | 52.6 | 60.5 | – | – | – | – | – | – | – | – | – | – | – | – | – | – | – | – | –
